Tests used:
HL-60(TB) = assay: Growth inhibition of human HL-60(TB) cells assessed as cell growth at 10 uM incubated for 48 hrs by sulforhodamine B assay relative to control; format: functional; conditions: read-out: Activity
A549 [1] = assay: Growth inhibition of human A549/ATCC cells assessed as cell growth at 10 uM incubated for 48 hrs by sulforhodamine B assay relative to control; format: functional; conditions: read-out: Activity
NCI-H322M [2] = assay: Growth inhibition of human NCI-H322M cells assessed as cell growth at 10 uM incubated for 48 hrs by sulforhodamine B assay relative to control; format: functional; conditions: read-out: Activity
NCI-H460 = assay: Growth inhibition of human NCI-H460 cells assessed as cell growth at 10 uM incubated for 48 hrs by sulforhodamine B assay relative to control; format: functional; conditions: read-out: Activity
NCI-H522 = assay: Growth inhibition of human NCI-H522 cells assessed as cell growth at 10 uM incubated for 48 hrs by sulforhodamine B assay relative to control; format: functional; conditions: read-out: Activity
HCC 2998 = assay: Growth inhibition of human HCC 2998 cells assessed as cell growth at 10 uM incubated for 48 hrs by sulforhodamine B assay relative to control; format: functional; conditions: read-out: Activity
SF-295 = assay: Growth inhibition of human SF-295 cells assessed as cell growth at 10 uM incubated for 48 hrs by sulforhodamine B assay relative to control; format: functional; conditions: read-out: Activity
SF-539 [3] = assay: Growth inhibition of human SF-539 cells assessed as cell growth at 10 uM incubated for 48 hrs by sulforhodamine B assay relative to control; format: functional; conditions: read-out: Activity
SNB-75 [4] = assay: Growth inhibition of human SNB-75 cells assessed as cell growth at 10 uM incubated for 48 hrs by sulforhodamine B assay relative to control; format: functional; conditions: read-out: Activity
OVCAR-4 [5] = assay: Growth inhibition of human OVCAR-4 cells assessed as cell growth at 10 uM incubated for 48 hrs by sulforhodamine B assay relative to control; format: functional; conditions: read-out: Activity
NCI/ADR-RES = assay: Growth inhibition of human NCI/ADR-RES cells assessed as cell growth at 10 uM incubated for 48 hrs by sulforhodamine B assay relative to control; format: functional; conditions: read-out: Activity
A498 = assay: Growth inhibition of human A498 cells assessed as cell growth at 10 uM incubated for 48 hrs by sulforhodamine B assay relative to control; format: functional; conditions: read-out: Activity
CAKI-1 = assay: Growth inhibition of human CAKI-1 cells assessed as cell growth at 10 uM incubated for 48 hrs by sulforhodamine B assay relative to control; format: functional; conditions: read-out: Activity
SN12C [6] = assay: Growth inhibition of human SN12C cells assessed as cell growth at 10 uM incubated for 48 hrs by sulforhodamine B assay relative to control; format: functional; conditions: read-out: Activity
TK-10 = assay: Growth inhibition of human TK-10 cells assessed as cell growth at 10 uM incubated for 48 hrs by sulforhodamine B assay relative to control; format: functional; conditions: read-out: Activity
MCF7 = assay: Growth inhibition of human MCF7 cells assessed as cell growth at 10 uM incubated for 48 hrs by sulforhodamine B assay relative to control; format: functional; conditions: read-out: Activity
Hs-578T [7] = assay: Growth inhibition of human Hs-578T cells assessed as cell growth at 10 uM incubated for 48 hrs by sulforhodamine B assay relative to control; format: functional; conditions: read-out: Activity
BT-549 = assay: Growth inhibition of human BT-549 cells assessed as cell growth at 10 uM incubated for 48 hrs by sulforhodamine B assay relative to control; format: functional; conditions: read-out: Activity
T47D = assay: Growth inhibition of human T47D cells assessed as cell growth at 10 uM incubated for 48 hrs by sulforhodamine B assay relative to control; format: functional; conditions: read-out: Activity
[8] = system: Poly(dA-dT)oligonucleotide; assay: Binding affinity to minor groove of poly(dA:dT) dsDNA (unknown origin) assessed as change in melting temperature by UV-vis spectrophotometry based DNA melting assay; format: nucleic-acid assay
[9] = system: Poly(dA-dT)oligonucleotide; assay: Displacement of ethidium bromide from minor groove of poly(dA:dT) dsDNA (unknown origin) by fluorescence spectrophotometry; format: nucleic-acid assay
A549 [10] = assay: Growth inhibition of human A549/ATCC cells assessed as cell growth at 0.01 uM incubated for 48 hrs by sulforhodamine B assay relative to control; format: functional; conditions: read-out: Activity
COLO 205 = assay: Growth inhibition of human COLO 205 cells assessed as cell growth at 0.01 uM incubated for 48 hrs by sulforhodamine B assay relative to control; format: functional; conditions: read-out: Activity
HCT-116 [11] = assay: Growth inhibition of human HCT-116 cells assessed as cell growth at 0.1 uM incubated for 48 hrs by sulforhodamine B assay relative to control; format: functional; conditions: read-out: Activity
HCT-116 [12] = assay: Growth inhibition of human HCT-116 cells assessed as cell growth at 1 uM incubated for 48 hrs by sulforhodamine B assay relative to control; format: functional; conditions: read-out: Activity
OVCAR-4 [13] = assay: Growth inhibition of human OVCAR-4 cells assessed as cell growth at 1 uM incubated for 48 hrs by sulforhodamine B assay relative to control; format: functional; conditions: read-out: Activity
NCI-H322M [14] = assay: Growth inhibition of human NCI-H322M cells assessed as cell growth at 100 uM incubated for 48 hrs by sulforhodamine B assay relative to control; format: functional; conditions: read-out: Activity
SF-539 [15] = assay: Growth inhibition of human SF-539 cells assessed as cell growth at 100 uM incubated for 48 hrs by sulforhodamine B assay relative to control; format: functional; conditions: read-out: Activity
LOX IMVI [16] = assay: Growth inhibition of human LOX IMVI cells assessed as cell growth at 100 uM incubated for 48 hrs by sulforhodamine B assay relative to control; format: functional; conditions: read-out: Activity
SN12C [17] = assay: Growth inhibition of human SN12C cells assessed as cell growth at 100 uM incubated for 48 hrs by sulforhodamine B assay relative to control; format: functional; conditions: read-out: Activity
RPMI-8226 = assay: Growth inhibition of human RPMI-8226 cells incubated for 48 hrs by sulforhodamine B assay; format: functional
NCI-H226 = assay: Growth inhibition of human NCI-H226 cells incubated for 48 hrs by sulforhodamine B assay; format: functional
SNB-75 [18] = assay: Growth inhibition of human SNB-75 cells incubated for 48 hrs by sulforhodamine B assay; format: functional
LOX IMVI [19] = assay: Growth inhibition of human LOX IMVI cells incubated for 48 hrs by sulforhodamine B assay; format: functional
PC-3 = assay: Growth inhibition of human PC-3 cells incubated for 48 hrs by sulforhodamine B assay; format: functional
Hs-578T [20] = assay: Growth inhibition of human Hs-578T cells incubated for 48 hrs by sulforhodamine B assay; format: functional
[21] = read-out: LC50 (the source's name)
[22] = read-out: pLC50 (the source's name) (converted)

CC(=O)Nc1cc(CO)cc(NC(=O)c2ccccc2)c1
growth at 10 µM (HL-60(TB)): 85.6% | growth at 10 µM (A549 [1]): 100% | growth at 10 µM (NCI-H322M [2]): 110% | growth at 10 µM (NCI-H460): 104% | growth at 10 µM (NCI-H522): 97.9% | growth at 10 µM (HCC 2998): 97.8% | growth at 10 µM (SF-295): 108% | growth at 10 µM (SF-539 [3]): 111% | growth at 10 µM (SNB-75 [4]): 122% | growth at 10 µM (OVCAR-4 [5]): 111% | growth at 10 µM (NCI/ADR-RES): 105% | growth at 10 µM (A498): 91.6% | growth at 10 µM (CAKI-1): 98.9% | growth at 10 µM (SN12C [6]): 119% | growth at 10 µM (TK-10): 119% | growth at 10 µM (MCF7): 106% | growth at 10 µM (Hs-578T [7]): 105% | growth at 10 µM (BT-549): 105% | growth at 10 µM (T47D): 103%

CC(=O)Nc1cc(CCl)cc(NC(=O)c2ccc(C(=O)Nc3cccc(NC(=O)CCCN(C)C)c3)cc2)c1
ΔTm [8]: 38.7 °C | C50 [9]: 9.9 µM | growth at 0.01 µM (A549 [10]): 104% | growth at 0.01 µM (COLO 205): 112% | growth at 0.1 µM (HCT-116 [11]): 107% | growth at 1 µM (HCT-116 [12]): 107% | growth at 1 µM (OVCAR-4 [13]): 91% | growth at 10 µM (HL-60(TB)): 101% | growth at 10 µM (A549 [1]): 101% | growth at 10 µM (NCI-H322M [2]): 108% | growth at 10 µM (NCI-H460): 110% | growth at 10 µM (NCI-H522): 104% | growth at 10 µM (HCC 2998): 99% | growth at 10 µM (SF-295): 66% | growth at 10 µM (SF-539 [3]): 100% | growth at 10 µM (SNB-75 [4]): 82% | growth at 10 µM (OVCAR-4 [5]): 99% | growth at 10 µM (NCI/ADR-RES): 100% | growth at 10 µM (A498): 87% | growth at 10 µM (CAKI-1): 104% | growth at 10 µM (SN12C [6]): 105% | growth at 10 µM (TK-10): 106% | growth at 10 µM (MCF7): 71% | growth at 10 µM (Hs-578T [7]): 111% | growth at 10 µM (BT-549): 106% | growth at 10 µM (T47D): 95% | growth at 100 µM (NCI-H322M [14]): 103% | growth at 100 µM (SF-539 [15]): 112% | growth at 100 µM (LOX IMVI [16]): 75% | growth at 100 µM (SN12C [17]): 102% | GI50 (RPMI-8226; read-out: GI50): > 100 µM | CC50 (RPMI-8226; [21]): > 100 µM | TGI (RPMI-8226; read-out: TGI): > 100 µM | GI50 (RPMI-8226; read-out: pGI50 (converted)): > 100 µM | CC50 (RPMI-8226; [22]): > 100 µM | TGI (RPMI-8226; read-out: pTGI): > 100 µM | GI50 (NCI-H226; read-out: GI50): > 100 µM | CC50 (NCI-H226; [21]): > 100 µM | TGI (NCI-H226; read-out: TGI): > 100 µM | GI50 (NCI-H226; read-out: pGI50 (converted)): > 100 µM | CC50 (NCI-H226; [22]): > 100 µM | TGI (NCI-H226; read-out: pTGI): > 100 µM | GI50 (SNB-75 [18]; read-out: GI50): > 100 µM | LC50 (SNB-75 [18]; read-out: LC50): > 100 µM | TGI (SNB-75 [18]; read-out: TGI): > 100 µM | GI50 (SNB-75 [18]; read-out: pGI50 (converted)): > 100 µM | LC50 (SNB-75 [18]; read-out: pLC50 (converted)): > 100 µM | TGI (SNB-75 [18]; read-out: pTGI): > 100 µM | GI50 (LOX IMVI [19]; read-out: GI50): > 100 µM | LC50 (concentration giving 50% cell kill) (LOX IMVI [19]; read-out: LC50): > 100 µM | TGI (LOX IMVI [19]; read-out: TGI): > 100 µM | GI50 (LOX IMVI [19]; read-out: pGI50 (converted)): > 100 µM | LC50 (concentration giving 50% cell kill) (LOX IMVI [19]; read-out: pLC50 (converted)): > 100 µM | TGI (LOX IMVI [19]; read-out: pTGI): > 100 µM | GI50 (PC-3; read-out: GI50): > 100 µM | CC50 (PC-3; [21]): > 100 µM | TGI (PC-3; read-out: TGI): > 100 µM | GI50 (PC-3; read-out: pGI50 (converted)): > 100 µM | CC50 (PC-3; [22]): > 100 µM | TGI (PC-3; read-out: pTGI): > 100 µM | GI50 (Hs-578T [20]; read-out: GI50): > 100 µM | CC50 (Hs-578T [20]; [21]): > 100 µM | TGI (Hs-578T [20]; read-out: TGI): > 100 µM | GI50 (Hs-578T [20]; read-out: pGI50 (converted)): > 100 µM | CC50 (Hs-578T [20]; [22]): > 100 µM | TGI (Hs-578T [20]; read-out: pTGI): > 100 µM

Source: ChEMBL document CHEMBL4715697, “Synthesis and biological activity of benzamide DNA minor groove binders” (2016)
